This note sets out measurements from PMC9456261 (International Journal of Molecular Sciences, 2022).

The test system of series [1] is Vero E6 cells. The series is described as follows: Cytotoxicity, MTT assay. A general note: Tetrazolium assays rely on reduction of a dye to a coloured formazan, in cell work by metabolically active cells.
The nature of series [2]: in vitro. The conditions noted are these: African green monkey.
In series [3] the test system is SARS-CoV-2. The series is described as follows: Time-of-drug-addition assay (qRT-PCR of viral RNA in supernatant). The series is classed as cell-based. The conditions noted are these: 25 µM, Vero E6, MOI 0.01, qRT-PCR 18 h post-infection. The method, then: To explore which steps of the SARS-CoV-2 replication cycle were interrupted by the test compounds, we performed a time-of-drug-addition assay for compounds 874 and 876, which were selected as representatives with different substituents at positions N1 and N3. Cells were treated with 25 µm of these compounds at various stages of infection (entry, full time and post-entry) which was followed by qRT-PCR assays.
The assays were performed as described previously. Briefly, Vero E6 cells were seeded into 96-well plates and treated with 874 or 876 (25 µM) at different stages of virus infection (full-time, entry and post-entry). The cells were infected with SARS-CoV-2 (MOI = 0.01) and then incubated for 1 h. The viral inoculum was then removed, and the cells were washed twice with PBS. At 18 h post-infection, the cell culture supernatant of each time point experiment was collected for viral yield measurements using qRT–PCR, as described in [31, 33].
Figure 3 Time-of-drug-addition Assay. Vero E6 cells were treated with the compounds at different time points of the viral replication cycle as described in the Materials and Methods chapter. For all experimental groups, cells were infected with SARS-CoV-2 at an MOI of 0.01. Viral RNA copies in the supernatant were quantified by qRT-PCR at 18 h post-infection. All results are shown as mean ± SEM (n = 3). One-way ANOVA with Tukey’s post hoc test: ** p < 0.01, *** p < 0.001 and **** p < 0.0001.
In general terms: Real-time PCR tracks product formation cycle by cycle.

In series [4] the target is SARS-CoV-2 RdRp (NSP12, NSP7 and NSP8) (Severe acute respiratory syndrome coronavirus 2, UniProt P0DTD1). The series can be described thus: Inhibition of SARS-CoV-2 RNA-dependent RNA polymerase activity (Profoldin kit). The series is classed as biochemical. The protocol:
SARS-CoV-2 RdRp activity was inhibited by 876 at 100 µM and 50 µM, by 100% and 60%, respectively (Figure 6).
The activity of SARS-CoV-2 RdRp was assessed using the SARS-CoV-2 RNA-dependent RNA polymerase kit plus (Profoldin #S2RPA100KE), according to the manufacture instructions. In brief, reactions were carried out at 35 °C for 2 h in the presence or absence (control) of the test compound. Then, fluorescent dye was added, and fluorescence was determined using a Qubit fluorimeter (Thermo Fisher, MA, USA). The inhibition of RdRp activity was calculated from the values obtained for control samples.
Figure 6 Uracil Derivative 876 Inhibit the Transcriptional Activity of SARS-CoV-2 RNA-dependent RNA polymerase. Transcriptional inhibition plot of the SARS-CoV-2 replication complex treated with 876 or PBS (control) (n = 3). Results are representative mean ± SEM. One-way ANOVA with Tukey’s post hoc test: *** p < 0.001 and **** p < 0.0001.

“4-[5-[3-[5-(2-Bromophenoxy)pentyl]-2,6-dioxo-5-methyl-3,6-dihydropyrimidin-1(^2H)-yl]pentyloxy]benzoic acid [Compound 872]” displayed a CC50 in series [1] (72 h) of over 50 µM.
What is called melting point is the temperature of the solid-liquid transition. With `O=C(O)c1ccc(OCCCCn2c(=O)ccn(Cc3cccc4ccccc34)c2=O)cc1` [Compound 601, 4-[4-[2,6-Dioxo-3-(naphthyl-1-methyl)-3,6-dihydropyrimidin-1(^2H)-yl]butoxy]benzoic acid], the melting point fell in the range of 183 to 184.5 °C. In addition, the CC50 in series [2] was over 50 µM.
Compound `O=c1ccn(Cc2c3ccccc3cc3ccccc23)c(=O)n1CCCCCCOc1ccc(Br)cc1` [Compound 611, 1-(Anthracen-9-ylmethyl)-3-[6-(4-bromophenoxy)hexyl]uracil] came in with a CC50 in series [2] of over 50 µM.
On to `O=C(O)c1ccc(OCCCCCn2c(=O)ccn(CCCCCOc3ccc(F)cc3)c2=O)cc1` [Compound 870, 4-[5-[3-[5-(4-Fluorophenoxy)pentyl]-2,6-dioxo-3,6-dihydropyrimidin-1(^2H)-yl]pentyloxy]benzoic acid], for which the melting point was 133 to 135 °C. Further, in series [2], the CC50 is over 50 µM.
`O=C(O)c1ccc(OCCCCCn2c(=O)ccn(CCCCCOc3ccccc3Br)c2=O)cc1` [Compound 871, 4-[5-[3-[5-(2-Bromophenoxy)pentyl]-2,6-dioxo-3,6-dihydropyrimidin-1(^2H)-yl]pentyloxy]benzoic acid]: the “Effect on cell proliferation / cell death” value in series [1] is “reduced cell proliferation without significant cell death”. For the same compound, the CC50 in series [2] was over 25 µM.
Turning to `O=C(O)c1ccc(OCCCCn2c(=O)ccn(CCCOc3ccc(Br)cc3)c2=O)cc1` [Compound 873, 4-[4-[3-[3-(4-Bromophenoxy)propyl]-2,6-dioxo-3,6-dihydropyrimidin-1(^2H)-yl]butoxy]benzoic acid], the melting point lay within 122 to 124 °C. Also, the CC50 in series [2] is over 50 µM.
Turning to `Cc1cc(C)cc(OCCCCCn2ccc(=O)n(CCCCCOc3ccc(C(=O)O)cc3)c2=O)c1` [Compound 874, 4-[5-[3-[5-(3,5-Dimethylphenoxy)pentyl]-2,6-dioxo-3,6-dihydropyrimidin-1(^2H)-yl]pentyloxy]benzoic acid], the “Effect on cell proliferation / cell death” value in series [1] was “reduced cell proliferation without significant cell death”. The CC50 in series [2] is over 25 µM. Besides, in series [3], the “Production of viral RNA, compound added at entry step” value is “did not inhibit the production of viral RNA” and the “Virus replication (viral load in supernatant), compound added full time” value is “inhibited virus replication”.
`O=C(O)c1ccc(Cn2c(=O)ccn(CCCCCOc3ccc(Br)cc3)c2=O)cc1` [Compound 875]: the CC50 in series [2] was over 50 µM.
In general, inhibition refers to the share of the control response that was lost under treatment. `O=C(O)c1ccc(OCCCCCn2c(=O)ccn(Cc3c4ccccc4cc4ccccc34)c2=O)cc1` [Compound 876]: the melting point was 173 to 176 °C. The CC50 in series [2] was over 50 µM. For the same compound, in series [3], the “Production of viral RNA, compound added at entry step” value was “did not inhibit the production of viral RNA” and the “Virus replication (viral load in supernatant), compound added full time” value is on record as “inhibited virus replication”. Also, the “Viral load, compound added post-entry” value in series [3] (post-entry) is reported as “reduced the viral load”. Also, 50 µM produced 60% inhibition in series [4] (50 µM). The compound further showed an inhibition at 100 µM in series [4] (100 µM) of 100%.
In the case of `O=C(O)c1ccc(OCCCCn2c(=O)ccn(Cc3ccc4ccccc4c3)c2=O)cc1` [Compound 1005, 4-[4-[2,6-Dioxo-3-(naphthyl-2-methyl)-3,6-dihydropyrimidin-1(^2H)-yl]butoxy]benzoic acid], the melting point is 143.5 to 145 °C. Besides, the CC50 in series [2] is over 50 µM.
For `O=C(O)c1ccc(OCCCCn2c(=O)ccn(Cc3ccc(Br)c4ccccc34)c2=O)cc1` [Compound 1006, 4-[4-[3-(4-Bromonaphthyl-1-methyl)-2,6-dioxo-3,6-dihydropyrimidin-1(2H)-yl]butoxy]benzoic acid] the same measures were 195.5 to 197.5 °C and over 50 µM.
For the compound `O=C(O)c1ccc(OCCCn2c(=O)ccn(CCCCCCCCCCCCOc3ccc(Br)cc3)c2=O)cc1` [Compound 1007, 4-[3-[3-[12-(4-Bromophenoxy)dodecyl]-2,6-dioxo-3,6-dihydropyrimidin-1(^2H)-yl]propoxy]benzoic acid], the “Effect on cell proliferation / cell death” value in series [1] was “reduced cell proliferation without significant cell death”. The compound also yielded a CC50 in series [2] of over 25 µM.
